{
  "source": "paper PMC11933534",
  "about": "“Favipiravir induces HuNoV viral mutagenesis and infectivity loss with clinical improvement in immunocompromised patients” (Clinical Immunology (Orlando, Fla.), 2024)",
  "key": {"HuNoV [1]": {"tested_on": "HuNoV", "test": "Infectivity of P1 stool-sample HuNoV in zebrafish larvae (fold increase, ID50)", "assay_type": "in vivo", "experimental": "Human stool samples, positive for HuNoV, were obtained from the Great Ormond Street Hospital for Children (United Kingdom) and the University Hospital of Leuven (Belgium). An aliquot of 100 mg of each stool sample was re-suspended in 1 mL of sterile PBS, thoroughly vortexed, and centrifuged (5 min, 1000 g), supernatant was harvested and stored at −80 °C. This virus suspension was used for RNA extractions, quantification by RT-qPCR and injections in the zebrafish larvae. HuNoV RNA was extracted from 100 μL of PBS suspension using the Direct-zol RNA kit (Zymo Research, Irvine, CA, USA), according to the manufacturer's protocol. The original concentrations of the stool samples were as followed: SS A: 5.52*10^9 copies/g stool, SS B: 1.34*10^11 copies/g stool, SS C: 2.07*10^11 copies/g stool, SS D: 3.07*10^10 copies/g stool, SS E: 1.23*10^12 copies/g stool, SS F: 3.12*10^11 copies/g stool and GII.4 Sydney[P16] (in house collection KU Leuven): 1.46*10^10 copies/g stool.\nZebrafish larvae were anesthetized and positioned as described previously, in short: zebrafish larvae of 3 days post fertilization were anesthetized and transferred to an agarose mold to position them on their dorsal side with the yolk facing upward. In every experiment, the injection needle was calibrated to ensure the precision of the injection volume. Microinjection was performed using an M3301R Manual Micromanipulator (WPI, Friedberg, Germany) and a FemtoJet 4i pressure microinjector (Eppendorf, Hamburg, Germany). Compound-treated zebrafish larvae received a 1 nL (1.5 nL in case of the combination treatment) injection of compound in the pericardial cavity, while negative control zebrafish were injected with an equal volume of DMSO. Subsequently, the zebrafish larvae received an injection of 3 nL virus in the yolk. After both injections, zebrafish larvae were transferred to 6-well plates with Danieau's solution and further maintained in an incubator with a 14/10 h light/dark cycle at 32 °C.\nZebrafish larvae were homogenized (Precellys 24, Bertin Technologies, Montigny-le-Bretonneux, France), the homogenates were cleared by centrifugation (5 min, 9000 g), and RNA was extracted using the Direct-zol RNA kit (Zymo Research, Irvine, CA, USA), according to the manufacturer's protocol. RNA levels were quantified with a one-step RT-qPCR (iTaq Universal Probes One-Step Kit, Bio-Rad, Hercules, CA, USA) as previously described.\nTo start, all stool samples were brought to the same theoretical inoculum (± 1000 viral RNA copies/3 nL injection volume) by dilution with PBS. To compare the viral infectivity between different stool samples, multiple methods were used; A) calculating the fold increase by taking the input based on the viral load of P1's stool samples and the amount of viral RNA copies/zebrafish at the peak of replication into account which are both quantified by RT-qPCR and B) determining the 50% infectious dose for each stool sample based on a well-established method adapted to the zebrafish replication model by diluting the collected stool samples to evaluate at which dilution the infectivity is lost."}, "mouse norovirus": {"tested_on": "mouse norovirus", "set-up": "method as in PMID 22809499", "details": "95%CI: 35–43 μg/mL; cited from earlier work"}, "[2]": {"set-up": "method as in PMID 30485769", "details": "P2; favipiravir 1200 mg 12-hourly; caused treatment interruptions; cited from earlier work"}, "HuNoV [3]": {"tested_on": "HuNoV", "set-up": "method as in PMID 30485769", "details": "P2; favipiravir 1200 mg 12-hourly, three courses; cited from earlier work"}, "[4]": {"test": "Adverse events during off-label treatment of patients", "assay_type": "in vivo, human"}},
  "note": "Like-named read-outs stand apart in the source and are kept apart here.",
  "data": [
    {"compound": "NC(=O)c1nc(F)c[nH]c1=O", "note": "[favipiravir]", "values": [
      {"measurement": "Fold increase in viral RNA, 0 to 2 dpi", "setting": "HuNoV [1]; P1 SS B, 2 days into favipiravir treatment (after 10 days ribavirin), ~1000 genome copies, pre-treatment SS A 321 ± 177", "value": "143 ± 76", "unit": "fold"},
      {"measurement": "50% infectious dose (ID50)", "setting": "HuNoV [1]; P1 SS B, 2 days into treatment, pre-treatment SS A 289", "value": "697 viral RNA copies/zebrafish"},
      {"measurement": "Fold increase in viral RNA, 0 to 2 dpi", "setting": "HuNoV [1]; P1 SS C, 125 days into favipiravir treatment, ~1000 genome copies, pre-treatment SS A 321 ± 177", "value": "53 ± 31", "unit": "fold"},
      {"measurement": "50% infectious dose (ID50)", "setting": "HuNoV [1]; P1 SS C, 125 days into treatment, pre-treatment SS A 289", "value": "461 viral RNA copies/zebrafish"},
      {"measurement": "50% infectious dose (ID50)", "setting": "HuNoV [1]; P1 SS D, after a 2-month treatment gap", "value": "338 viral RNA copies/zebrafish"},
      {"measurement": "Fold increase in viral RNA, 0 to 2 dpi", "setting": "HuNoV [1]; P1 SS D, after a treatment gap of 2 months, ~1000 genome copies", "value": "177 ± 55", "unit": "fold"},
      {"measurement": "Fold increase in viral RNA, 0 to 2 dpi", "setting": "HuNoV [1]; P1 SS E, 6 months after re-introduction at higher favipiravir dose", "value": "75 ± 21", "unit": "fold"},
      {"measurement": "50% infectious dose (ID50)", "setting": "HuNoV [1]; P1 SS E, after treatment reintroduction (higher dose)", "value": "880 viral RNA copies/zebrafish"},
      {"measurement": "Fold increase in viral RNA, 0 to 2 dpi", "setting": "HuNoV [1]; P1 SS F, 7 months after re-introduction at higher favipiravir dose", "value": "47 ± 16", "unit": "fold"},
      {"measurement": "50% infectious dose (ID50)", "setting": "HuNoV [1]; P1 SS F, after treatment reintroduction (higher dose)", "value": "1110 viral RNA copies/zebrafish"},
      {"measurement": "Increase in the 50% infectious dose in HuNoV shed during treatment", "setting": "HuNoV [1]; P1 stool samples over one year of treatment", "value": "~1", "unit": "log10"},
      {"measurement": "EC50 for mouse norovirus in vitro", "setting": "mouse norovirus", "value": "EC50 Favipiravir for mouse norovirus (39 μg/mL [35])"},
      {"measurement": "Adverse event", "setting": "[2]", "value": "recurring transaminitis of undetermined aetiology"},
      {"measurement": "Change in stool HuNoV viral load", "setting": "HuNoV [3]", "value": "modest decrease in HuNoV VLs, but not viral clearance"},
      {"measurement": "Adverse event", "setting": "[4]; P1, favipiravir 200 mg 8-hourly + nitazoxanide 200 mg 12-hourly, suspected to be drug-induced, several medications discontinued", "value": "conjugated hyperbilirubinaemia"},
      {"measurement": "Recurrence of conjugated hyperbilirubinaemia", "setting": "[4]; P1, restarted favipiravir 400 mg 8-hourly + nitazoxanide 200 mg 12-hourly", "value": "did not recur"},
      {"measurement": "Adverse event", "setting": "[4]; P3, favipiravir 12-hourly 400 mg increased to 800 mg, transaminitis did not recur", "value": "nail discolouration and frequent headaches"},
      {"measurement": "Adverse event", "setting": "[4]; P3, favipiravir 12-hourly 1200 mg, discontinued after one month", "value": "progressing transaminitis"},
      {"measurement": "Adverse event", "setting": "[4]; P4, after 2 months of favipiravir 400 mg 8-hourly + nitazoxanide, nail discolouration reversed after discontinuation", "value": "nail discolouration and intermittent jaundice"}
    ]}
  ]
}
